According to ChEMBL document CHEMBL3576818, “Structure-Activity Relationships of (+)-Naltrexone-Inspired Toll-like Receptor 4 (TLR4) Antagonists” (J Med Chem, 2015):

What was measured:
[1] = Cytotoxicity against mouse BV2 cells assessed as reduction in viability by crystal violet staining method; details: BV-2
Toll-like receptor 4 = molecular target: T1, Toll-like receptor 4 (Mus musculus, UniProt Q9QUK6)
T1 sequence (Q9QUK6 whole entry): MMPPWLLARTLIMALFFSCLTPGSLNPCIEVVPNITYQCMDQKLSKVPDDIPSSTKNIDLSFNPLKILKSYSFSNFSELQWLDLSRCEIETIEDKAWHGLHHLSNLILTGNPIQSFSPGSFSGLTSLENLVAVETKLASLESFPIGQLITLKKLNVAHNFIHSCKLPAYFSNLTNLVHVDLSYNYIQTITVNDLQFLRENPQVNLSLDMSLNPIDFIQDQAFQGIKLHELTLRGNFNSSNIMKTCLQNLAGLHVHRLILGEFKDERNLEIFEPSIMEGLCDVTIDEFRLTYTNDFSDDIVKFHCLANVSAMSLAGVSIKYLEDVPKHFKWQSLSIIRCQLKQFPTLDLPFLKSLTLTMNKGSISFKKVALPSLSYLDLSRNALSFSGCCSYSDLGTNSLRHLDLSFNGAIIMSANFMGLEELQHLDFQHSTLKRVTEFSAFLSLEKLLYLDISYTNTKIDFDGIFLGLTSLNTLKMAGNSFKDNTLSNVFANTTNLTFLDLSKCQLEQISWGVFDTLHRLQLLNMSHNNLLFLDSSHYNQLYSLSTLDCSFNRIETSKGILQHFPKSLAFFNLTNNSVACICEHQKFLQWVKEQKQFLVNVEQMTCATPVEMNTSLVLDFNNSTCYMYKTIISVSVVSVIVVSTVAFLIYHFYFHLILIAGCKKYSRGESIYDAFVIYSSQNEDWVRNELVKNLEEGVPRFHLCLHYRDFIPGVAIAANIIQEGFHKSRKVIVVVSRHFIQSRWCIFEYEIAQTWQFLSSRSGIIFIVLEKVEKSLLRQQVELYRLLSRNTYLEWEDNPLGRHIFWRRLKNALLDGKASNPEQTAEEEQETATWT
Description: Antagonist activity against TLR4 in mouse BV2 cells assessed as inhibition of LPS-induced nitric oxide production incubated for 24 hrs by 2,3-diaminonaphthalene dye based assay

| Compound | IC50 [1] [µM] | IC50 (Toll-like receptor 4) [µM] |
| --- | --- | --- |
| O=C1CC[C@]2(O)[C@@H]3Cc4ccc(O)c5c4[C@]2(CCN3CCCCCc2ccccc2)[C@@H]1O5 | 26.8 | 1.7 |
| CCCCCCN1CC[C@@]23CCCC[C@]2(O)[C@@H]1Cc1ccc(O)cc13 | – | 5.2 |
| Oc1ccc2c3c1O[C@@H]1[C@@H](O)CC[C@]4(O)[C@H](C2)N(CC2CC2)CC[C@@]314 | > 400 | 243 |
| O=C1CC[C@]2(O)[C@@H]3Cc4ccc(O)c5c4[C@]2(CCN3CCCc2ccccc2)[C@@H]1O5 | 69.3 | 1.4 |
| O=C1CC[C@]2(O)[C@@H]3Cc4ccc(O)c5c4[C@]2(CCN3CCc2ccccc2)[C@@H]1O5 | 141 | 1.4 |
| O=C1CC[C@]2(O)[C@@H]3Cc4ccc(O)c5c4[C@]2(CCN3CCCCc2ccccc2)[C@@H]1O5 | 37.1 | 1.2 |
| CCCCCCN1CC[C@@]23c4c5ccc(O)c4O[C@@H]2C(=O)CC[C@]3(O)[C@@H]1C5 | 121 | 6.7 |
| O=C1CC[C@]2(O)[C@@H]3Cc4ccc(O)cc4[C@]2(CCN3CC2CC2)C1 | > 400 | 118 |
| Oc1ccc2c(c1)[C@]13CCCC[C@]1(O)[C@H](C2)N(CC1CC1)CC3 | 366 | 48.9 |
| COc1ccc2c3c1O[C@@H]1C(=O)CC[C@]4(O)C(C2)N(CCc2ccccc2)CC[C@@]314 | – | 5.7 |
| CCCCCN1CC[C@@]23c4c5ccc(O)c4O[C@@H]2C(=O)CC[C@]3(O)[C@@H]1C5 | > 200 | 7.5 |
| CCCCCCCN1CC[C@@]23c4c5ccc(O)c4O[C@@H]2C(=O)CC[C@]3(O)[C@@H]1C5 | 68.5 | 3 |
| CCCCCCN1CC[C@@]23C=CCC[C@]2(O)[C@@H]1Cc1ccc(O)cc13 | 155 | 22.5 |
| O=C1CC[C@]2(O)[C@@H]3Cc4ccc(O)c5c4[C@]2(CCN3CCc2ccccc2F)[C@@H]1O5 | 65.7 | 1.8 |
| Oc1ccc2c3c1O[C@@H]1[C@H](O)CC[C@]4(O)[C@H](C2)N(CC2CC2)CC[C@@]314 | > 400 | 144 |
| CCCCCCCCN1CC[C@@]23c4c5ccc(O)c4O[C@@H]2C(=O)CC[C@]3(O)[C@@H]1C5 | – | 1.7 |
| CCCCN1CC[C@@]23c4c5ccc(O)c4O[C@@H]2C(=O)CC[C@]3(O)[C@@H]1C5 | > 200 | 24.8 |
| O=C1CC[C@]2(O)[C@@H]3Cc4ccc(O)c5c4[C@]2(CCN3CC2CC2)[C@@H]1O5 | > 400 | 106 |
| O=C1CC[C@]2(O)CN(CC3CC3)CC[C@]23c2cccc(O)c2O[C@H]13 | > 400 | 76.2 |
